Nine molecules from patent EP4656642A1, “ESTROGEN RECEPTOR PROTEOLYSIS TARGETING CHIMERA COMPOUND AND USE THEREOF” (GAN & LEE PHARM CO., LTD, priority 2023, dated 2024) can be followed below.

The term IC50 denotes the midpoint of a concentration-inhibition curve. A low value points to higher potency.

Common to all, as to format: cell-based
Experiment [1] concerns the target T1, ERα (Homo sapiens, UniProt P03372).
T1 sequence (P03372 1-595): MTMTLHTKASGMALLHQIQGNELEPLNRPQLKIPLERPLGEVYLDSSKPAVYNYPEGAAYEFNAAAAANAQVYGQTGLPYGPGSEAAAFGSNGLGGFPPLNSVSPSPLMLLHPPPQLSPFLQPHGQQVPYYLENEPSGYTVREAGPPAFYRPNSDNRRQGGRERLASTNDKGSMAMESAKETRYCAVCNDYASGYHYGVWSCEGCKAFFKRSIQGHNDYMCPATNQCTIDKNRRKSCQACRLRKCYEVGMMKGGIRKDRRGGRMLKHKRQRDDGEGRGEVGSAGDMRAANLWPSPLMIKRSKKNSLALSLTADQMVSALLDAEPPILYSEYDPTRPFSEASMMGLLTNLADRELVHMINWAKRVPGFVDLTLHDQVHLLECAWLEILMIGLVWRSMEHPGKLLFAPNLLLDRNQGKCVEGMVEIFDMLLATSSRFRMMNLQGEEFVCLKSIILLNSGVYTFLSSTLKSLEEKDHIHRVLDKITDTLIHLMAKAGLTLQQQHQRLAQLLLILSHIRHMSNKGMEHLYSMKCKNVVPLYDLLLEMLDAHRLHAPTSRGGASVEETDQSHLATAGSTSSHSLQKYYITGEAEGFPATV
Put plainly: Degradation of ERα in MCF-7 cells (immunoblotting, 4 h). The essentials: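 Degradation rate reflects ERα band intensity, corrected to an internal reference protein, relative to control. Values come from Western blotting of lysates from MCF-7 cells exposed 4 h at 37°C to compounds at final concentrations of 0.15-1000nM.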
(A western blot detects proteins with antibodies after separation by electrophoresis.)

Experiment [2] relates to MCF-7 cells. Put plainly: Inhibition of cell proliferation of MCF-7 cells (CCK-8, 9 days). Conditions: treated for 9 days, CCK-8 kit (Table 6). A digest of the protocol:
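Read-out was CCK-8 viability after 9-day continuous exposure (37°C, 5% CO2) of MCF-7 cells plated at 800/well in 10% FBS DMEM across several compound concentrations. Values are proliferation IC50s.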
In general terms: Tetrazolium assays rely on reduction of a dye to a coloured formazan, in cell work by metabolically active cells.

The target of experiment [3] is T1, ERα. The experiment can be described thus: Degradation of ERα in T-47D cells (immunoblotting, 4 h). Details: host or cells: T-47D. A digest of the protocol:
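ERα protein levels were assessed by immunoblot of RIPA lysates (with protease inhibitor) after 4 h exposure at 37°C. Compound was added in DMSO to T-47D cells at final concentrations of 0.15-1000 nM.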

For `CC1CC(N2CCC3(CC2)COc2c3ccc3c2CN(C2CCC(=O)NC2=O)C3=O)CCN1C1CC2(CCN(c3ccc(C4c5ccc(O)cc5CCC4c4ccccc4)cc3)CC2)C1` (stereo not drawn) [K18], the “Degradation rate (%) of ERα in MCF-7 cells” value in experiment [1] (1nM compound) turned out to be 43%; in experiment [1] (10nM compound), 80%. This molecule gave an IC50 in experiment [2] of 12.6 nM. Also, the entries for the “Degradation rate (%) of ERα in T-47D cells” value in experiment [3] (1nM compound) and in experiment [3] (10nM compound) were 42% and 79%, respectively.

Turning to `O=C1CCC(N2Cc3c(ccc4c3OCC43CCN(C(=O)CC4CCN(c5ccc([C@@H]6c7ccc(O)cc7CC[C@@H]6c6ccccc6)cc5)CC4)CC3)C2=O)C(=O)N1` (stereo partly drawn) [A124], the “Degradation rate (%) of ERα in MCF-7 cells” value in experiment [1] (1nM compound) is 18%; in experiment [1] (10nM compound), 20%. This molecule gave a 50% inhibitory concentration (IC50) in experiment [2] of 56400 nM. Besides, the “Degradation rate (%) of ERα in T-47D cells” value in experiment [3] (1nM compound) and in experiment [3] (10nM compound) was 52% throughout.

Consider `C[C@@H]1Cc2cc(O)ccc2C(c2c(F)cc(N3CCC4(CCN(CC(=O)N5CCC6(CC5)COc5c6ccc6c5CN(C5CCC(=O)NC5=O)C6=O)CC4)CC3)cc2F)N1CC(F)F` (stereo partly drawn) [F4], for which the entries for the “Degradation rate (%) of ERα in MCF-7 cells” value in experiment [1] (1nM compound) and in experiment [1] (10nM compound) were 64% and 63%, respectively. This molecule also showed an IC50 in experiment [2] of 0.103 nM. The “Degradation rate (%) of ERα in T-47D cells” value in experiment [3] (1nM compound) stood at 62%; in experiment [3] (10nM compound) it was 79%.

As for `CN(CC(=O)N1CCC2(CC1)COc1c2ccc2c1CN(C1CCC(=O)NC1=O)C2=O)C1CCC2(CC1)CCN(c1ccc([C@@H]3c4ccc(O)cc4CC[C@@H]3c3ccccc3)cc1)CC2` (stereo partly drawn) [H51], the results for the “Degradation rate (%) of ERα in MCF-7 cells” value in experiment [1] (1nM compound) and in experiment [1] (10nM compound) were 46% and 75%, respectively. The molecule also displayed an IC50 in experiment [2] of 153 nM. In addition, the “Degradation rate (%) of ERα in T-47D cells” value in experiment [3] (1nM compound) is 49%; in experiment [3] (10nM compound), 79%.

Regarding `O=C1CCC(N2Cc3cc4c(cc3C2=O)OC2(CC4)CCN(C(=O)CN3CCC4(CC3)CCN(c3ccc([C@@H]5c6ccc(O)cc6CC[C@@H]5c5ccccc5)cc3)CC4)CC2)C(=O)N1` (stereo partly drawn) [A67], the “Degradation rate (%) of ERα in MCF-7 cells” value in experiment [1] (1nM compound) is recorded as 27%; in experiment [1] (10nM compound) it was 67%. For the same molecule, in experiment [2], the IC50 turned out to be 3.96 nM. Besides, the “Degradation rate (%) of ERα in T-47D cells” value in experiment [3] (1nM compound) was 26%; in experiment [3] (10nM compound), 76%.

Turning to `CN(CC(=O)N1CCC2(CC1)COc1c2ccc2c1CN(C1CCC(=O)NC1=O)C2=O)C1CCC2(CC1)CN(c1ccc([C@@H]3c4ccc(O)cc4CC[C@@H]3c3ccccc3)cc1)C2` (stereo partly drawn) [H52], the figures for the “Degradation rate (%) of ERα in MCF-7 cells” value in experiment [1] (1nM compound) and in experiment [1] (10nM compound) were 53% and 61%, respectively. Moreover, the IC50 in experiment [2] is 5320 nM. Moreover, the results for the “Degradation rate (%) of ERα in T-47D cells” value in experiment [3] (1nM compound) and in experiment [3] (10nM compound) were 49% and 74%, respectively.

As to `O=C1CCC(N2Cc3c(ccc4c3OCC43CCN(C(=O)CN4CC5(C4)CN(c4ccc([C@@H]6c7ccc(O)cc7CC[C@@H]6c6ccccc6)cc4)C5)CC3)C2=O)C(=O)N1` (stereo partly drawn) [B20], the results for the “Degradation rate (%) of ERα in MCF-7 cells” value in experiment [1] (1nM compound) and in experiment [1] (10nM compound) were 42% and 64%, respectively. In experiment [2], this molecule came in with an IC50 of 1630 nM. Further, the “Degradation rate (%) of ERα in T-47D cells” value in experiment [3] (1nM compound) came to 47%; in experiment [3] (10nM compound), 73%.

For `O=C1CCC(N2Cc3c(ccc4c3OCC43CCN(C(=O)[C@H]4CC[C@@H](N(CC5CC5)CC5CCN(c6ccc([C@@H]7c8ccc(O)cc8CC[C@@H]7c7ccccc7)cc6)CC5)CC4)CC3)C2=O)C(=O)N1` (stereo partly drawn) [N11], the “Degradation rate (%) of ERα in MCF-7 cells” value in experiment [1] (1nM compound) is 35%; in experiment [1] (10nM compound) it was 64%. For the same molecule, 4.29 nM corresponded to half-maximal inhibition in experiment [2] (IC50). In addition, the “Degradation rate (%) of ERα in T-47D cells” value in experiment [3] (1nM compound) came out at 53%; in experiment [3] (10nM compound), 57%.

With `C[C@@H]1Cc2cc(O)ccc2C(c2c(F)cc(N3CCC4(CC3)CC(N3CCC(N5CCC6(CC5)COc5c6ccc6c5CN(C5CCC(=O)NC5=O)C6=O)[C@@H](F)C3)C4)cc2F)N1CC(F)F` (stereo partly drawn) [I3], the results for the “Degradation rate (%) of ERα in MCF-7 cells” value in experiment [1] (1nM compound) and in experiment [1] (10nM compound) were 40% and 67%, respectively. Further, the IC50 in experiment [2] was 14.9 nM. Besides, the results for the “Degradation rate (%) of ERα in T-47D cells” value in experiment [3] (1nM compound) and in experiment [3] (10nM compound) were 41% and 68%, respectively.
